Consider eleven compounds from ChEMBL document CHEMBL3046157, “Synthesis of new N-arylamino(2-furyl)methylphosphonic acid diesters, and in vitro evaluation of their cytotoxicity against esophageal cancer cells” (Med Chem Res, 2013).

Assay [1] can be described thus: Cytotoxicity against Homo sapiens (human) HET-1A cells assessed as inhibition of cell survival after 24 hr by MTT assay. In kind it is cell-based.
Assay [2] is described as follows: Cytotoxicity against Homo sapiens (human) KYSE-30 cells assessed as inhibition of cell survival after 24 hr by MTT assay. In kind it is functional, cell-based. As to conditions: KYSE-30, 24 h.
Assay [3] is described as follows: Cytotoxicity against Homo sapiens (human) KYSE-150 cells assessed as inhibition of cell survival after 24 hr by MTT assay. It is filed as functional, cell-based. As to conditions: KYSE-150, 24 h.
Another assay has as its system KYSE-270. The experiment in a line: Cytotoxicity against Homo sapiens (human) KYSE-270 cells assessed as inhibition of cell survival after 24 hr by MTT assay. In kind it is functional, cell-based. As to conditions: KYSE-270, 24 h. A general note: Tetrazolium assays rely on reduction of a dye to a coloured formazan, in cell work by metabolically active cells.

`COc1ccccc1NC(c1ccco1)P(=O)(OC)OC` (centres undefined): the IC50 – broadly, the concentration at which inhibition is half-maximal – in assay [1] is above 400 µM; in assay [2], 38 µM; in assay [3], 51.3 µM; in the assay on KYSE-270 it was 77.4 µM.
For `COc1ccc(NC(c2ccco2)P(=O)(OC)OC)cc1` (centres undefined), the IC50 in assay [1] is above 400 µM; in assay [2], 316 µM; in assay [3], 166 µM; in the assay on KYSE-270, 224 µM.
For `COc1ccc(NC(c2ccco2)P(=O)(Oc2ccccc2)Oc2ccccc2)cc1` (centres undefined), in that order: above 400 µM, above 400 µM, 209 µM and 205 µM.
The matching figures for `Cc1ccccc1NC(c1ccco1)P(=O)(Oc1ccccc1)Oc1ccccc1` (centres undefined): above 400 µM, 251 µM, above 400 µM and above 400 µM.
For `Cc1cccc(NC(c2ccco2)P(=O)(Oc2ccccc2)Oc2ccccc2)c1` (centres undefined), in that order: above 400 µM, 380 µM, above 400 µM and above 400 µM.
Regarding `Cc1ccc(NC(c2ccco2)P(=O)(Oc2ccccc2)Oc2ccccc2)cc1` (centres undefined), the IC50 (in assay [1]; in assay [2]; in assay [3]; in the assay with KYSE-270) was above 400 µM each time.
Regarding `COc1cccc(NC(c2ccco2)P(=O)(OCc2ccccc2)OCc2ccccc2)c1` (centres undefined), the IC50 was above 400 µM in assay [1], 251 µM in assay [2], 200 µM in assay [3] and 251 µM in the assay with KYSE-270.
Turning to `Cc1cccc(/N=C/c2ccco2)c1` [N-FURFURYLIDENE-M-TOLUIDINE], the IC50 in assay [1] was above 400 µM; in assay [2], 158 µM; in assay [3] it was 50.1 µM; in the assay on KYSE-270, 111 µM.
For `COc1ccccc1/N=C/c1ccco1` [N-FURFURYLIDENE-O-ANISIDINE], in that order: above 400 µM, above 400 µM, above 400 µM and above 400 µM.
For `COc1ccc(/N=C/c2ccco2)cc1` [N-FURFURYLIDENE-P-ANISIDINE], in that order: above 400 µM, above 400 µM, above 400 µM and above 400 µM.
The matching figures for `Cc1ccc(/N=C\c2ccco2)cc1` [N-FURFURYLIDENE-P-TOLUIDINE]: above 400 µM, above 400 µM, 380 µM and 398 µM.
